Test results taken from article PMC3180999 (Journal of medicinal chemistry, 2010).

Key:
AR = conditions: cited from earlier work
[1] = system: LNCaP (hormone sensitive) cells; test: PSA expression readout in normal LNCaP; assay type: cell-based
PSA secretion = test: relative PSA level / PSA secretion assay, cell line not named; assay type: cell-based; conditions: vs bicalutamide and 27 as standards, Scheme 9
LAPC4/AR cells = test: LAPC4/AR xenograft in castrate SCID mice; assay type: in vivo
[2] = pharmacokinetics: serum concentration, steady state concentration
LNCaP/AR cells [3] = test: LNCaP/AR xenograft in castrate SCID mice; assay type: in vivo
LNCaP/AR cells [4] = test: PSA expression readout in LNCaP/AR; assay type: cell-based; conditions: Schemes 18 and 19
[5] = serum concentration after IV injection, Figure 3
[6] = oral, 0.1, 1 and 10 mg/kg once a day, Figure 7

C[C@]1(O)CC[C@H]2[C@@H]3CCC4=CC(=O)CCC4=C3C=C[C@@]21C [R1881]
affinity for the AR (AR): slightly higher than that of the natural ligand dihydrotestosterone

CC1(C)C(=O)N(c2ccc(C#N)c(C(F)(F)F)c2)C(=S)N1CCCCO [RU59063]
affinity for the AR (AR): nearly equal to that of the well known steroidal agonist R1881

CC1(C)C(=O)N(c2ccc(C#N)c(C(F)(F)F)c2)C(=S)N1c1ccc(N=[N+]=[N-])cc1 [compound 25, 4-[3-(4-Azidophenyl)-4,4-dimethyl-5-oxo-2-thioxoimidazolidin-1-yl]-2-trifluoromethylbenzonitrile]
relative PSA level vs vehicle (DMSO) ([1]; bicalutamide as standard, Scheme 6): the best of this group

Cc1ccc(N2C(=S)N(c3ccc(C#N)c(C(F)(F)F)c3)C(=O)C23CCC3)cc1 [compound 38, 4-(8-Oxo-6-thioxo-5-(4-methylphenyl)-5,7-diazaspiro[3.4]oct-7-yl)-2-trifluoromethylbenzonitrile]
relative PSA expression levels (PSA secretion): comparable to the dimethyl analogue 27 | fold change in tumor volume of xenografts (LAPC4/AR cells; 10 mg/kg, pilot experiment, Figure 1): slightly superior | dose response in change in tumor volume of xenografts (LAPC4/AR cells; castration-resistant xenograft assay, model not named at the place, Figure 2): good dose response | clearance [2, 5]: very rapid clearance | half-life [2, 5]: short half-life

CNC(=O)c1ccc(N2C(=S)N(c3ccc(C#N)c(C(F)(F)F)c3)C(=O)C23CCC3)cc1F [compound 91, N-Methyl-4-[7-(4-cyano-3-trifluoromethylphenyl)-8-oxo-6-thioxo-5,7-diazaspiro-[3.4]oct-5-yl]-2-fluorobenzamide]
activity on xenografts over an extended period (LNCaP/AR cells [3]; 10 mg/kg/day, 31 days, Figure 8): retains activity | effect on LNCaP/AR (HR) tumor size (LNCaP/AR cells [3]; 10 and 50 mg/kg once a day, vs bicalutamide at the same dose, Figure 6): very active | dose required in dose response of tumor volume change (LNCaP/AR cells [3]; [6]): at least 1 mg/kg/day | optimal dose in dose response of tumor volume change (LNCaP/AR cells [3]; [6]): 10 mg/kg/day | activity in the hormone refractory LNCaP/AR assay (LNCaP/AR cells [4]): excellent activity | effect on hormone sensitive LNCaP cells (PSA) ([1]; 10% FBS, harvest on day 6 and day 10, Scheme 20): good activity | pharmacokinetic (PK) profile ([2]; mouse, in vivo): superb pharmacokinetic (PK) profile
